Seven compounds from patent US20130029970A1 (priority 2009, published 2013) can be followed below.

Experiment [1] deals with T1, recombinant human cannabinoid receptor CB2 (Homo sapiens, UniProt P34972).
T1 construct: (cDNA clone) CNR0200000
In words: Cannabinoid receptor radioligand binding assay, [3H]-CP 55,940 displacement, hCB2. The procedure:
(§1) Membranes were isolated from transfected cells as follows. Monolayers of cultured cells were washed twice with phosphate-buffered saline (PBS). […] Homogenates were centrifuged 10 minutes at 1000×g at 4° C. The supernatant was collected and was centrifuged for 1 hour at 40,000×g. The supernatant was then decanted and the resulting pellet was re-suspended in 20 mM HEPES, pH 7.4, 5 mM MgCl2, 1 mM EDTA, 10% sucrose with complete cocktail protease inhibitors. Protein concentration of membrane suspensions were measured by Bradford Protein Assay using bovine serum albumin as the standard (BioRad catalog #500-0006). Protein concentrations of membrane suspensions were adjusted with the final buffer in the range of 5 to 10 mg/mL and were stored at −80° C. until further use.
A rapid filtration technique using Millipore FB filter plates (Catalog #MADVNOB) and filtration apparatus (Millipore system Catalog MAVM0960R) with vacuum aspiration was used to harvest and rinse labeled membranes (8 times with 0.2 mL of chilled binding buffer). […] Binding data were analyzed using GraphPad Prism (GraphPad Software, Inc. San Diego, Calif.).

The target in experiment [2] is T2, recombinant human cannabinoid receptor CB1 (Homo sapiens, UniProt P21554).
T2 construct: (cDNA clone) CNR01L000
Kind of experiment: Cannabinoid receptor radioligand binding assay, [3H]-CP 55,940 displacement, hCB1. An excerpt:
(§2) Stable, HEK-293-derived cell lines that recombinantly express hCBI or hCB2 were established. In brief, the clone hCB1 (CNR IL) or hCB2 (CNR2) was transfected into human embryonic kidney cells (HEK-293) using Lipofectamine 2000 (Gibco, Cat#11668-019) according to the manufacturer's protocol. Transfected clones were isolated by single colony purification and clones were screened for receptor expression using a whole cell, ^3H—CP 55,940 radioligand binding assay. HEK-293 stable cells were maintained in Dulbecco's modified Eagles medium (DMEM) containing 10% fetal bovine serum, 2 mM L-glutamine and 0.5 mg/mL G-418.
Membranes were isolated from transfected cells as follows. Monolayers of cultured cells were washed twice with phosphate-buffered saline (PBS). Cells were scraped into 20 mM HEPES, pH 7.4, 10 mM EDTA containing complete cocktail protease inhibitors (Roche, Catalog #11 697 498 001) and were homogenized by an electric-powered mechanical probe homogenizer (Omni GLH; probe G7-195S) for 40 seconds at 7000 rpm. Homogenates were centrifuged 10 minutes at 1000×g at 4° C. The supernatant was collected and was centrifuged for 1 hour at 40,000×g. The supernatant was then decanted and the resulting pellet was re-suspended in 20 mM HEPES, pH 7.4, 5 mM MgCl2, 1 mM EDTA, 10% sucrose with complete cocktail protease inhibitors. Protein concentration of membrane suspensions were measured by Bradford Protein Assay using bovine serum albumin as the standard (BioRad catalog #500-0006). Protein concentrations of membrane suspensions were adjusted with the final buffer in the range of 5 to 10 mg/mL and were stored at −80° C. until further use.
Radioligand binding assays were performed by incubating membranes (2-10 μg protein) prepared from HEK-293 cells expressing recombinant human cannabinoid receptors, CB1 or CB2, at room temperature with 0.5 nM cannabinoid receptor agonist, [^3H]-CP 55,940 (Perkin Elmer, catalog #NET1051) in 0.2 mL of binding buffer (50 mM Tris-HCl, pH 7.5, 5 mM MgCl2, 2.5 mM EDTA) and 0.1% fatty acid free bovine serum albumin (Sigma Cat. #A0821) for 90 minutes. A rapid filtration technique using Millipore FB filter plates (Catalog #MADVNOB) and filtration apparatus (Millipore system Catalog MAVM0960R) with vacuum aspiration was used to harvest and rinse labeled membranes (8 times with 0.2 mL of chilled binding buffer). The radioactivity bound to the filters was counted with 0.05 mL of liquid scintillant (UltraGold MV, PerkinElmer catalog #6013159) in a scintillation counter (Perkin Elmer Microbeta instrument). Nonspecific binding was determined in the presence of unlabeled 1 μM CP 55,940 (Sigma Aldrich, catalog #C1112). Binding data were analyzed using GraphPad Prism (GraphPad Software, Inc. San Diego, Calif.).

A further experiment has as its target T3, human CB2 receptors (Homo sapiens, UniProt P34972).
T3 construct: (cDNA clone) CNR0200000
Kind of experiment: cAMP assay in HEK-293 cells, hCB2 agonist. The format is cell-based. The procedure: (§3) Functional assays which monitor G-protein coupled receptor or downstream cellular responses can be used to characterize potential CB1 receptor and/or CB2 receptor agonist or antagonist activities. Direct activation (or inhibition of activation) can be monitored using a GTPγS assay (membrane-based assay) or cAMP assay (whole cell-based assay).
cAMP assays were performed in HEK-293 cells stably expressing human CB1 or CB2 receptors. […] Cells suspensions were centrifuged and the cells were washed once with PBS, were centrifuged again, and the cells were re-suspended in HBSS (Hank's Balanced Salt Solution, Cellgro, Cat #21-022-CV) solution containing 10 mM HEPES and 0.1% fatty acid free BSA (Sigma, Cat #A0281). Cell suspensions were prepared at 1,500,000 cells per ml. Stock solutions of test substances (10 mM) in DMSO were diluted to 1 mM using 30% DMSO as diluent. Test substances of solutions (1 mM) were further diluted down to 3× of final assay concentrations in the above HBSS buffer containing 0.1% BSA in the presence of 90 uM forskolin (Sigma Cat#F6886). To perform the assay, 20 uL of cell suspension (1,500,000 cells/mL) were added to each well in 96 well plate and treated with 10 uL test substance solution diluted as described above. Cells and compounds were incubated at 37° C. for 30 minutes. Cells were lysed and cAMP concentration was measured using DiscoveRx −XS+ cAMP assay kit (DiscoveRx Corporation Ltd., Fremont, Calif., USA, Cat #90-0075-03), following the manufacturer's protocol. GraphPad Prism software was used to calculate EC50 values using sigmoidal dose response curve fitting. The maximal amount of cAMP produced by forskolin was defined as 100%.
(Cyclic AMP is a second messenger, typically raised through Gs and lowered through Gi signalling.)

In the next experiment the target is T4, human CB1 receptors (Homo sapiens, UniProt P21554).
T4 construct: (cDNA clone) CNR01L000
In words: cAMP assay in HEK-293 cells, hCB1 agonist. The format is cell-based. The note with it: inhibition of forskolin-stimulated cAMP, HEK-293 cells.
Text: as §2, §3
cAMP assays were performed in HEK-293 cells stably expressing human CB1 or CB2 receptors. For cannabinoid receptor functional assays measuring agonist effects on cellular cAMP levels, monolayers of cultured cells were harvested with enzyme-free PBS-based cell dissociation buffer (Gibco, Cat#13151-04). Cells suspensions were centrifuged and the cells were washed once with PBS, were centrifuged again, and the cells were re-suspended in HBSS (Hank's Balanced Salt Solution, Cellgro, Cat #21-022-CV) solution containing 10 mM HEPES and 0.1% fatty acid free BSA (Sigma, Cat #A0281). Cell suspensions were prepared at 1,500,000 cells per ml. Stock solutions of test substances (10 mM) in DMSO were diluted to 1 mM using 30% DMSO as diluent. Test substances of solutions (1 mM) were further diluted down to 3× of final assay concentrations in the above HBSS buffer containing 0.1% BSA in the presence of 90 uM forskolin (Sigma Cat#F6886). To perform the assay, 20 uL of cell suspension (1,500,000 cells/mL) were added to each well in 96 well plate and treated with 10 uL test substance solution diluted as described above. Cells and compounds were incubated at 37° C. for 30 minutes. Cells were lysed and cAMP concentration was measured using DiscoveRx −XS+ cAMP assay kit (DiscoveRx Corporation Ltd., Fremont, Calif., USA, Cat #90-0075-03), following the manufacturer's protocol. GraphPad Prism software was used to calculate EC50 values using sigmoidal dose response curve fitting. The maximal amount of cAMP produced by forskolin was defined as 100%. CB1 or CB2 agonists reduced forskolin-stimulated cAMP signaling. The EC50 value of an agonist compound was defined as the concentration at which 50% of the forskolin-stimulated cAMP synthesis was inhibited.

A further experiment has as its target T5, human CB2 (hCB2) (Homo sapiens, UniProt P34972).
T5 construct: (cDNA clone) CNR0200000
Kind of experiment: 35S GTPγS binding assay, hCB2 agonist. It counts as biochemical. The procedure:
cDNA expression clones for human CB1 (hCB1, Genbank Accession No. AY225225) and human CB2 (hCB2, Genbank Accession No. AY242132) expressed in vector pcDNA3.1+ were purchased from UMR cDNA Resource Center, Rolla, Mo. (Clone ID CNR01L000 for hCB1; CNR0200000 for hCB2).
as §1, §3
^35S GTPγS binding assays were performed by incubating recombinant cell membranes prepared above (5 μg) in the presence of scintillation proximity assay beads (SPA beads, Catalog #RPNQ0252 GE Healthcare, Buckinghamshire, England) in GTPγS binding buffer [50 mM HEPES (pH 7.4), 100 mM NaCl, 5 mM MgCl2, 0.001% saponin (Sigma catalog #S4521)] supplemented with 20 uM GDP (Sigma catalog #G7127) in the presence or absence of test compound. The reaction was carried out in 96-well microplates with 0.1 nM [^35S]GTPγS (specific activity=1250 Ci/mmol; Perkin Elmer catalog #NEG030X250UC) in a final volume of 100 uL. After a 90 min room temperature incubation, the reaction was analyzed using a scintillation counter (Perkin Elmer Microbeta instrument). Binding data were analyzed using GraphPad Prism.
On the technique in general: GTPγS is a poorly hydrolysed GTP analogue; its binding reports G protein activation.

One may read the IC50 as the concentration at which inhibition is half-maximal. One may read the EC50 as the concentration that produces a half-maximal response. Read a high EC50 as a need for much substance.

Like-named read-outs stand apart in the source and are kept apart here.

T1 sequence (P34972 whole entry): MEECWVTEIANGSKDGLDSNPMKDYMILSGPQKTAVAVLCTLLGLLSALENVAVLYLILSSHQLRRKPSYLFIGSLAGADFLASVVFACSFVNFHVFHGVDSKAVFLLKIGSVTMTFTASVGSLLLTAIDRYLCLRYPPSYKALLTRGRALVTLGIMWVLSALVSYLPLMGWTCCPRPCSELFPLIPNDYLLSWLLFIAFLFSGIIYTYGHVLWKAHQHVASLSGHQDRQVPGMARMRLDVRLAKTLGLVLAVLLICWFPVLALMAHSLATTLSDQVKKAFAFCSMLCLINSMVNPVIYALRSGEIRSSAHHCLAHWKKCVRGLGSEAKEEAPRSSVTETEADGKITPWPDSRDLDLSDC
T3 sequence (P34972 whole entry): as above
T2 sequence (P21554 whole entry): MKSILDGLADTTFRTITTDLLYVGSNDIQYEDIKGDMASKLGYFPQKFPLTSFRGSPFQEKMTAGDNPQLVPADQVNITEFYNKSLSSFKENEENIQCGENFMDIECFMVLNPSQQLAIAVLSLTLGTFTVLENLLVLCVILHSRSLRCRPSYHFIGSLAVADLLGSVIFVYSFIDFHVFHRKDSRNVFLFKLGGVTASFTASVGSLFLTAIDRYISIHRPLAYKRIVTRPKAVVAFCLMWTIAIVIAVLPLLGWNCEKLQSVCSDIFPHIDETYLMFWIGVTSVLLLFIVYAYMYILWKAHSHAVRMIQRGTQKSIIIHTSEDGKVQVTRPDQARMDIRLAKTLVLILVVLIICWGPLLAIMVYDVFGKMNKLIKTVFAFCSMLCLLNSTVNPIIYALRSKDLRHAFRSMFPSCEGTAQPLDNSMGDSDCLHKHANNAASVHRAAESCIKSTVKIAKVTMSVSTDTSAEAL
T4 sequence (P21554 whole entry): as above
T5 sequence (P34972 whole entry): as the sequence (P34972 whole entry) above

Consider `COc1ccc(C(=O)c2cc3cc(C)[nH]c3s2)c(Cl)c1` [Compound 79, (2-Chloro-4-methoxyphenyl)(5-methyl-6H-thieno[2,3-b]pyrrol-2-yl)methanone], for which the half-inhibitory concentration (IC50) in experiment [1] and in experiment [2] was > 10000 nM throughout. On human CB2 receptors, this compound registered a concentration giving a half-maximal response (EC50) of 100 to 1000 nM. In addition, the “hCB1 EC50 (cAMP ag, nM)” value on human CB1 receptors was “NS (NS means “Not Significant,” which means less than 30% agonist activity when compared to the positive control.)”.
Take `COc1ccc(C(=O)c2cc3cc(C)n(CCn4ccnc4)c3s2)cc1` [Compound 67, (6-(2-(1H-Imidazol-1-yl)ethyl)-5-methyl-6H-thieno[2,3-b]pyrrol-2-yl)(4-methoxyphenyl)methanone]: the EC50 on human CB2 (hCB2) lay within 100 to 1000 nM. In addition, the concentration for half-maximal inhibition (IC50) in experiment [1] was 1000 to 10000 nM; in experiment [2] it was > 10000 nM. Besides, on human CB1 receptors, the “hCB1 EC50 (cAMP ag, nM)” value is “NS (NS means “Not Significant,” which means less than 30% agonist activity when compared to the positive control.)”.
As for `COc1ccc(C(=O)c2cc3cc(C)n(CCNCC4CCOCC4)c3s2)cn1` [Compound 149, (6-methoxypyridin-3-yl)(5-methyl-6-(2-((tetrahydro-2H-pyran-4-yl)methylamino)ethyl)-6H-thieno[2,3-b]pyrrol-2-yl)methanone], the IC50 in experiment [1] and in experiment [2] was > 10000 nM throughout. The same compound came in with an EC50 on human CB2 receptors of 100 to 1000 nM. For the same compound, on human CB1 receptors, the “hCB1 EC50 (cAMP ag, nM)” value is reported as “NS (NS means “Not Significant,” which means less than 30% agonist activity when compared to the positive control.)”.
For `COc1ccc(C(=O)c2cc3cc(C)n(CCCN(C)S(C)(=O)=O)c3s2)cc1` [Compound 69, N-(3-(2-(4-Methoxybenzoyl)-5-methyl-6H-thieno[2,3-b]pyrrol-6-yl)propyl)-N-methylmethanesulfonamide], the EC50 on human CB2 (hCB2) was in the range of 100 to 1000 nM. In addition, the concentration for half-maximal inhibition (IC50) in experiment [1] is 1000 to 10000 nM; in experiment [2], > 10000 nM. Besides, the “hCB1 EC50 (cAMP ag, nM)” value at human CB1 receptors is on record as “NS (NS means “Not Significant,” which means less than 30% agonist activity when compared to the positive control.)”.
As to `CCS(=O)(=O)NCCCn1c(C)cc2cc(C(=O)c3ccc(OC)cc3)sc21` [Compound 74, N-(3-(2-(4-Methoxybenzoyl)-5-methyl-6H-thieno[2,3-b]pyrrol-6-yl)propyl)ethanesulfonamide], the results for the half-maximal inhibitory concentration (IC50) in experiment [1] and in experiment [2] were 1000 to 10000 nM and > 10000 nM, respectively. On human CB2 receptors, this compound came in with a concentration giving a half-maximal response (EC50) of 100 to 1000 nM. For the same compound, the “hCB1 EC50 (cAMP ag, nM)” value on human CB1 receptors is “NS (NS means “Not Significant,” which means less than 30% agonist activity when compared to the positive control.)”.
Taken in the same sequence, the figures for `Cc1cc2cc(C(=O)c3ccncc3)sc2n1CCN1CCOCC1` [Compound 40, (5-Methyl-6-(2-morpholinoethyl)-6H-thieno[2,3-b]pyrrol-2-yl)(pyridin-4-yl)methanone] were 1000 to 10000 nM, > 10000 nM, 100 to 1000 nM and “NS (NS means “Not Significant,” which means less than 30% agonist activity when compared to the positive control.)”.
Regarding `COc1ccc(C(=O)c2cc3cc(C)n(CCC(=O)O)c3s2)cc1` [Compound 73, 3-(2-(4-Methoxybenzoyl)-5-methyl-6H-thieno[2,3-b]pyrrol-6-yl)propanoic acid], the half-inhibitory concentration (IC50) is > 10000 nM in experiment [1] (displacement of 0.5 nM [3H]-CP 55,940, read-out: hCB2 IC50 (CP displ)) and > 10000 nM in experiment [2] (displacement of 0.5 nM [3H]-CP 55,940, read-out: hCB1 IC50 (CP displ)). For the same compound, at human CB2 receptors (inhibition of forskolin-stimulated cAMP, HEK-293 cells), the “hCB2 EC50 (cAMP ag, nM)” value is recorded as “NS (NS means “Not Significant,” which means less than 30% agonist activity when compared to the positive control.)”. On human CB1 receptors, the “hCB1 EC50 (cAMP ag, nM)” value is “NS (NS means “Not Significant,” which means less than 30% agonist activity when compared to the positive control.)”.
